Test results: patent publication US8388950B2, “Coenzyme Q10-containing water-soluble composition and process for production thereof” (Kaneka Corporation, priority 2005, dated 2013)

Assay: DSC determination of the crystallization peak of coenzyme Q10 (effect of preventing crystallization)
Assay type: physicochemical
Conditions: held at 80° C. 10 minutes, cooled to −50° C. at −5° C./min
Method: The component materials shown in Table 1 were warmed and dissolved at 60° C., and weighed out the appropriate amount on a measuring aluminum pan to make samples for DSC determination.
Using the samples obtained in Reference Examples 1 to 10, the effect of preventing coenzyme Q10 crystallization derived from a lipophilic sucrose fatty acid ester was determined by DSC (differential scanning calorimetry).
Detector: DSC6220 (manufactured by SII Nano Technology Inc.)
Determination condition: the crystallization peak (exothermic peak) of coenzyme Q10 was determined after retaining the samples at 80° C. for 10 minutes and then cooling them to −50° C. at a cooling rate of −5° C./rain.

DSC exothermic peak: −11.4 °C
Compound: COC1=C(OC)C(=O)C(C/C=C(\C)CC/C=C(\C)CC/C=C(\C)CC/C=C(\C)CC/C=C(\C)CC/C=C(\C)CC/C=C(\C)CC/C=C(\C)CC/C=C(\C)CCC=C(C)C)=C(C)C1=O [compound 4, Coenzyme Q10]
